Assay results reported in BindingDB's records for doi:10.1074/jbc.M803947200 (Universit&Eacute, 2008).

Biological target: Stromal cell-derived factor 1 (Homo sapiens, UniProt P48061)
Assay: Tryptophan Fluorescence Assay
Conditions: 20 °C
Description: Binding of chalcone 4 and chlcone 1 to CSCL12 was examined by monitoring changes in the emission intensity of intrinsic Trp fluorescence of the chemokine.

Stromal cell-derived factor 1, sequence (P48061 whole entry): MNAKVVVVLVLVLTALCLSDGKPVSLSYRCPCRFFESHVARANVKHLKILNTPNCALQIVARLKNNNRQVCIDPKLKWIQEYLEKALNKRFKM

SMILES: O=C(/C=C/c1ccc(O)cc1)c1ccccc1 [Chalcone 2]
- IC50: 15 µM

SMILES: COc1cc(/C=C/C(=O)c2ccc(Cl)cc2)ccc1O [1-(4-Chloro-phenyl)-3-(4-hydroxy-3-methoxy-phenyl)-propenone]
- IC50: 150 µM

SMILES: O=C(/C=C/c1ccccc1)c1ccccc1 [Chalcone, 13]
- IC50: > 500 µM

SMILES: O=C(/C=C/c1ccc(O)cc1)c1ccccc1O [(E)-1-(2-hydroxyphenyl)-3-(4-hydroxyphenyl)prop-2-en-1-one]
- IC50: 24.2 µM
